What all share (type): in vivo
Test [1] concerns ICR mice. In words: Mouse swimming by compulsion experiment (Experiment 10). As for the experimental part:
10.1 Experiment pharmaceuticals: The pharmaceutical of Embodiment 5 is provided by Beijing Wonner Biotech. […] Above-mentioned pharmaceuticals are prepared with physiological saline for feeding into the stomach. 10.2 Experimental animals: ICR mice, male, 20.0±1 g of body weight, secondary, are provided by the Experimental Animal Science Department of Capital Medical University, Beijing. The quality certificate number of mice is SCXK (JING) 2006-2008. 10.4 Experimental method: The mouse group and the administration of drugs are like the mouse tail-hanging experiment. The experiment is proceeded in tested mouse in each group after 1 hour of the administration of drug. The mouse is trained to swim for 15 minutes before the experiment and on the eighth day. After 24 hours, the experiment is performed. The mouse is placed in the glass tank having 10 cm of the water depth, 14 cm of the diameter and at 25° C. of the water temperature. The accumulative time of non-movement of the mouse in the water for the last 5 minutes is recorded. 10.5 Statistic calculation: The experimental data are represented as X+SD, and the experimental result is calculated as one-way ANOVA by SPSS 11.5 statistic software.

The subject of test [2] is ICR mice. In words: Resetpine-induced mouse body temperature decrease experiment (Experiment 2). From the text: 2.1 Experimental animals: ICR mice, male, 22.0±2 g of body weight, secondary, are provided by the Experimental Animal Science Department of Capital Medical University, Beijing.
2.2 Experiment pharmaceuticals: The pharmaceutical of Embodiment 1 is provided by Beijing Wonner Biotech. Ltd. Co., Paroxetine (Paxil) is the product of Thong Mei Tianjin Smith Kline pharmaceuticals Co. Ltd., and Resetpine is the product of Guangdong BangMin Pharmaceutical Co., Ltd.
2.4 Dose designs: 1. High dose of Embodiment 1 (80 mg/kg/d); 2. middle dose of Embodiment 1 (40 mg/kg/d); and 3. low dose of Embodiment 1 (20 mg/kg/d).
2.5.1 Group division and administration of drug: The mice are grouped randomly, and 10 mice are in each group. 1. High dose of Embodiment 1 (80 mg/kg, P.O., administered for 7 days); 2. middle dose of Embodiment 1 (40 mg/kg, P.O., administered for 7 days); 3. low dose of Embodiment 1 (20 mg/kg, P.O., administered for 7 days); 4.
2.5.2 Experimental method: After 1 hour of the last administration of drug on the eighth day, the mouse's anal temperature is determined. […] After 4 hours of injecting Resetpine, the mouse's anal temperature is determined once again. […]
2.5.3 Statistic calculation: The experimental data are represented as X±SD, and the experimental result is calculated as ANOVA by SPSS 11.5 statistic software.

The subject of test [3] is ICR mice. The test can be described thus: Resetpine-induced mouse body temperature decrease experiment (Experiment 4). From the text: 4.1 Experimental animals: ICR mice, male, 22.0±2 g of body weight, secondary, are provided by the Experimental Animal Science Department of Capital Medical University, Beijing.
4.2 Experiment pharmaceuticals: The pharmaceutical of Embodiment 2 is provided by Beijing Wonner Biotech. Ltd. Co., Paroxetine (Paxil) is the product of Zhong Mei Tianjin Smith Kline pharmaceuticals Co. Ltd., and Resetpine is the product of Guangdong BangMin Pharmaceutical Co., Ltd.
4.4 Dose designs: 1. High dose of Embodiment 2 (80 mg/kg/d); 2. middle dose of Embodiment 2 (40 mg/kg/d); and 3. low dose of Embodiment 2 (20 mg/kg/d).
4.5.1 Group division and administration of drug: The mice are grouped randomly, and 10 mice are in each group. 1. High dose of Embodiment 2 (80 mg/kg, P.O., administered for 7 days); 2. middle dose of Embodiment 2 (40 mg/kg, P.O., administered for 7 days); 3. low dose of Embodiment 2 (20 mg/kg, P.O., administered for 7 days); 4.
4.5.2 Experimental method: After 1 hour of the last administration of drug on the eighth day, the mouse's anal temperature is determined. […] After 4 hours of injecting Resetpine, the mouse's anal temperature is determined once again. […]
4.5.3 Statistic calculation: The experimental data are represented as X±SD, and the experimental result is calculated as ANOVA by SPSS 11.5 statistic software.

Test [4] has as its system ICR mice. In words: Mouse tail-hanging experiment (Experiment 5). As for the experimental part:
5.1 Experimental animals: ICR mice, male, 22.0±2 g of body weight, secondary, are provided by the Experimental Animal Science Department of Capital Medical University, Beijing. 5.2 Experiment pharmaceuticals: The pharmaceutical of Embodiment 3 is provided by Beijing Wonner Biotech. […] High dose of Embodiment 3 (80 mg/kg/d); 2. middle dose of Embodiment 3 (40 mg/kg/d); and 3. low dose of Embodiment 3 (20 mg/kg/d). 5.5.1 Group division and administration of drug: The mice are grouped randomly, and 10 mice are in each group. 1. High dose of Embodiment 3 (80 mg/kg, P.O., administered for 7 days); 2. middle dose of Embodiment 3 (40 mg/kg, P.O., administered for 7 days); 3. low dose of Embodiment 3 (20 mg/kg, P.O., administered for 7 days); 4. […] After 1 hour of the last administration of drug, the mouse tail-hanging experiment is proceeded. 5.5.2 Experimental method: The mouse's tail (1 cm to the tail end) is taped on the wood strip higher than the platform for 5 cm and hung up for 6 minutes. The time of non-movement of the mouse for the last 5 minutes is recorded. 5.5.3 Statistic calculation: The experimental data are represented as X+SD, and the experimental result is calculated as ANOVA by SPSS 11.5 statistic software.

Setting [5] is: 3 mg/kg P.O. 7 days, 4 h after Resetpine 2 mg/kg i.p.

As to `Fc1ccc([C@@H]2CCNC[C@H]2COc2ccc3c(c2)OCO3)cc1` [Paroxetine], the Time of non-movement is on record as 57.80 ± 38.07 s in test [1] (3 mg/kg/d into the stomach, 1 h after dose, water 25° C., last 5 minutes) and 75.33 ± 22.91 s in test [4] (3 mg/kg P.O. 7 days, 1 h after last dose, last 5 of 6 min). Also, the “Effect on accumulative time of non-movement, swimming by compulsion (in words)” value in test [1] (high, middle and low doses of Embodiment 5, Paroxetine) is listed as “obviously decrease the accumulative time of non-movement”. For the same compound, the Decreased temperature in test [2] (setting [5]) and in test [3] (setting [5]) was 2.38 ± 0.69 °C in each case. For the same compound, the “Effect on reduced body temperature induced by Resetpine (in words)” value in test [2] (high, middle and low doses of Embodiment 1, Paroxetine) was “decrease the reduced body temperature induced by Resetpine”; in test [3] (middle dose of Embodiment 2, Paroxetine), “decrease the reduced body temperature induced by Resetpine”. Also, the “Effect on time of non-movement after the mouse's tail is hung up (in words)” value in test [4] (high and middle doses of Embodiment 3, Paroxetine, significantly different from control) is given as “decrease the time of non-movement”.

(Values after patent US20100311674A1, “PHARMACEUTICAL COMPOSITIONS WITH A MECHANISM OF MULTI-TARGET RECEPTOR RETROACTION FOR TREATING DEPRESSION” (Yu-Fen Chi, priority 2007, published 2010).)
